Patent US8716228B2, “GPR54 agonists or antagonists for treatment of diseases presenting behavioral abnormalities” (YEDA Research and Development Co. Ltd., priority 2009, dated 2014)
Where a name gives a salt, the structure may show the parent alone. Square brackets hold non-standard residues; d marks the D form. Peptide text beside a SMILES is read from it. dPhe(4-Cl) = N[C@H](Cc1ccc(Cl)cc1)C(=O)O; d2Nal = N[C@H](Cc1ccc2ccccc2c1)C(=O)O; dCit = NC(=O)NCCC[C@@H](N)C(=O)O; d3Pal = N[C@H](Cc1cccnc1)C(=O)O

Legend:
C57B1/6 mice = experiment: PPI in MK-801 pharmacological model of schizophrenia; format: in vivo, mouse; conditions: acute MK-801 0.1 mg/kg i.p., PPI 15 min later, vs naive mice
Description: (§1) Prepulse Inhibition (PPI). PPI testing was performed within startle chambers purchased from Med Associates Inc (Med Associates, St. Albans, Vt., USA). PPI was analyzed as described previously (Kipnis et al., 2004). Briefly, during a period of acclimation, a 65-dB background noise was applied for 5-min, and continued throughout the test session. All sessions for testing of PPI consisted of startle trials (pulse alone, 40-ms, 120-dB), prepulse trials (prepulse 20-ms, 69, 73, 78, or 81 dB followed by a (100-ms delay) pulse), and no-stimulus trials. All sessions were presented in pseudo-random order. The average time between trials was 15 s (range 12-30 s). PPI was calculated as: % PPI=100−{[(startle response for prepulse+pulse)/(startle response for pulse-alone)]×100}. In all the experiments, there were no significant differences between groups in trials of startle reactivity to pulse alone, and in no-stimulation trials. Data from no-stimulation trials are not included in the results because the values obtained were negligible relative to values from trials containing startle stimuli. Reduced PPI is associated with schizophrenia-related behavior. […]
To further establish the antipsychotic effect of Kp-10, we evaluated its ability to overcome psychotic symptoms induced by the psycho-mimetic agent, MK-801 (N-methyl-D-aspartate (NMDA) antagonist), which induces neurotransmitter imbalance. […]

Lewis rats [1] = experiment: Experimental autoimmune encephalomyelitis (EAE); format: in vivo; conditions: female offspring after prenatal poly I:C treatment, MBP68-86 immunization
KiSS-1 = experiment: qPCR of KiSS-1 mRNA in hippocampus; format: in vivo, mouse; conditions: adult poly I:C affected mice vs age-matched controls
BDNF = experiment: qPCR of BDNF transcripts in hippocampus; format: in vivo, mouse; conditions: mRNA, offspring of poly I:C treated dams treated at 8 weeks with Kp-10 or PBS
Description: RNA purification, cDNA synthesis, reverse transcription PCR, and real-time quantitative PCR analysis. For RNA expression analysis, cells from whole hippocampi were extracted with TRI Reagent (MRC, Cincinnati, Ohio), and total cellular RNA was purified from the lysates using the RNeasy kit (Qiagen, Hilden, Germany). RNA (1 μg) was converted to cDNA using SuperScript II (Promega, Madison, Wis.). The amplification cycle was 95° C. for 5 s, 60° C. for 20 s, and 72° C. for 15 s.
The following primers were used: […]
To understand what is the mechanism behind the prophylactic treatment of Kp-10 we examined the expression of total brain-derived neurotrophic factor (BDNF) and its exon transcripts 1-4 according to Zajac et al. (2010). […] Recently, association between a BDNF variant and childhood-onset mood disorder was established (Strauss et al., 2005). Therefore, we studied mRNA expression of a few BDNF transcripts in the hippocampus of offspring of PBS treated dams (n=5) compared to offspring of poly I:C treated dams, which were treated at 8 weeks with either Kp-10 (n=6) or PBS (n=6) (Table 3). […] Treatment with Kp-10 at 8 weeks of age induced an increase in the expression of BDNF1 transcript to the normal level (Table 3(ii)). […] In addition, no significant difference was found between the groups in the expression of BDNF transcripts 3 and 4 (Table 3(iv and v)). […] The involvement of BDNF in schizophrenia and its effect on PPI levels are still a debate. Our observations of changes in expression of selective forms of BDNF might explain this apparent dichotomy.

lymphocytes = experiment: Lymphocyte proliferation assay after MBP68-86 vaccination; format: cell-based, Lewis rats; conditions: offspring after prenatal poly I:C treatment
Lewis rats [2] = experiment: PPI in offspring of poly I:C treated Lewis rats; format: in vivo; conditions: pregnant Lewis rats 4 mg/kg poly I:C, vs progeny of saline-treated animals
Description: (§2) Poly I:C administration. Rats or mice were bred, and the first day after copulation was defined as day 1 of pregnancy. On gestation day 15, pregnant animals were injected intravenously with 4.0 mg/kg poly I:C (Sigma-Aldrich, Israel) dissolved in saline, or an equivalent volume of saline as a control. Both rats and mice received the same protocol of poly I:C administration.
as §1, with “trials.” for “trials. Data from no-stimulation trials are not included in the results because the values obtained were negligible relative to values from trials containing startle stimuli. Reduced PPI is associated with schizophrenia-related behavior.”

[3] = system: offspring of poly I:C treated dams; experiment: PPI in offspring of poly I:C treated dams (mouse model for schizophrenia); format: in vivo; conditions: pregnant C57B1/6 mice 4 mg/kg poly I:C, vs saline
Description: as §2
Prepulse Inhibition (PPI). PPI testing was performed within startle chambers purchased from Med Associates Inc (Med Associates, St. Albans, Vt., USA). PPI was analyzed as described previously (Kipnis et al., 2004). Briefly, during a period of acclimation, a 65-dB background noise was applied for 5-min, and continued throughout the test session. All sessions for testing of PPI consisted of startle trials (pulse alone, 40-ms, 120-dB), prepulse trials (prepulse 20-ms, 69, 73, 78, or 81 dB followed by a (100-ms delay) pulse), and no-stimulus trials. All sessions were presented in pseudo-random order. The average time between trials was 15 s (range 12-30 s). PPI was calculated as: % PPI=100−{[(startle response for prepulse+pulse)/(startle response for pulse-alone)]×100}. In all the experiments, there were no significant differences between groups in trials of startle reactivity to pulse alone, and in no-stimulation trials. Data from no-stimulation trials are not included in the results because the values obtained were negligible relative to values from trials containing startle stimuli. Reduced PPI is associated with schizophrenia-related behavior. The same protocol was used in mice and rats (FIG. 1A).
Kisspeptin treatment. Mice were injected i.p with 100 μl of 1/10/100 μM Kp-10 peptide (SEQ ID NO:3) (synthesized at the Weizmann Institute of Science, or Sigma-Aldrich, Israel) dissolved in PBS, 30 minutes before the PPI analysis.
The ability of a normal lymphocyte population to reverse abnormal PPI behavior in immune deficient mice, encouraged us to test whether immune cells derived from the offspring of poly I:C treated dams would reverse the abnormal behavior of SCID mice in the PPI test. […]

naive C57B1/6 mice [4] = experiment: PPI in naive C57B1/6 mice; format: in vivo, mouse; conditions: naive animals, GnRH receptor antagonist alone
Description: Prepulse Inhibition (PPI). PPI testing was performed within startle chambers purchased from Med Associates Inc (Med Associates, St. Albans, Vt., USA). […] Briefly, during a period of acclimation, a 65-dB background noise was applied for 5-min, and continued throughout the test session. All sessions for testing of PPI consisted of startle trials (pulse alone, 40-ms, 120-dB), prepulse trials (prepulse 20-ms, 69, 73, 78, or 81 dB followed by a (100-ms delay) pulse), and no-stimulus trials. All sessions were presented in pseudo-random order. The average time between trials was 15 s (range 12-30 s). PPI was calculated as: % PPI=100−{[(startle response for prepulse+pulse)/(startle response for pulse-alone)]×100}. […] Data from no-stimulation trials are not included in the results because the values obtained were negligible relative to values from trials containing startle stimuli.
Neurotensin receptor antagonist SR142948 (TOCRIS COOKSON LTD) was used at 100 μg/kg 60 min before the PPI analysis.
GnRH receptor antagonist Cetrorelix Acetate (Cetrotide™, Anaspec Inc. Fremont, Calif.). Control mice were administered the same volume of PBS.
To examine whether Kp-10 can elevate PPI in naïve mice in a dose dependent manner, we analyzed PPI in C57B1/6 mice that were injected i.p with 100 μl of 1/10/100 μM Kp-10 (SEQ ID NO:3).

[5] = system: poly I:C rat model for schizophrenia; conditions: prophylactic treatment in peri-adolescence; cited from earlier work
naive C57B1/6 mice [6] = conditions: neurotensin receptor antagonist alone (Binder et al., 2001); cited from earlier work

C[C@]12N[C@H](Cc3ccccc31)c1ccccc12 [MK-801, [+]-5-methyl-10,11-dihydro-5H-dibenzo-[a,d]-cyclohepten-5,10-imine hydrogen maleate, reference compound]
PPI response (C57B1/6 mice): significantly reduced PPI response

polyriboinosinic-polyribocytidylic acid [poly I:C]
Duration of EAE (day ± SEM) (Lewis rats [1]): 5.08 ± 0.3 days | Onset of EAE (day ± SEM) (Lewis rats [1]): 11.17 ± 0.2 days | KiSS-1 mRNA levels in hippocampus (KiSS-1): reduction in KiSS-1 mRNA levels | Expression of BDNF1 transcript (BDNF): 1.2 ± 0.3 | Expression of BDNF2 transcript (BDNF): 5.7 ± 0.1 | Expression of BDNF3 transcript (BDNF): 6.2 ± 0.9 | Expression of BDNF4 transcript (BDNF): 7.4 ± 1 | Expression of BDNF transcript (total BDNF) (BDNF): 1.7 ± 0.6 | Lymphocyte proliferation (PI ± SD) (lymphocytes; antigen Con-A): 126 ± 67 | Lymphocyte proliferation (PI ± SD) (lymphocytes; antigen MBP68-86): 1.0 ± 0.11 | Lymphocyte proliferation (PI ± SD) (lymphocytes; antigen Ova): 1.2 ± 0.09 | PPI in adult offspring (Lewis rats [2]): reduction in PPI | PPI in adult offspring [3]: reduced PPI

CC(=O)N[C@H](Cc1ccc2ccccc2c1)C(=O)N[C@H](Cc1ccc(Cl)cc1)C(=O)N[C@H](Cc1cccnc1)C(=O)N[C@@H](CO)C(=O)N[C@@H](Cc1ccc(O)cc1)C(=O)N[C@H](CCCNC(N)=O)C(=O)N[C@@H](CC(C)C)C(=O)N[C@@H](CCCNC(=N)N)C(=O)N1CCC[C@H]1C(=O)N[C@H](C)C(N)=O [Cetrotide™, Cetrorelix Acetate, reference compound] (Ac-[d2Nal][dPhe(4-Cl)][d3Pal]SY[dCit]LRP[dA]-NH2)
PPI (naive C57B1/6 mice [4]): did not affect PPI

Cc1nc2n(c(=O)c1CCN1CCC(c3noc4cc(F)ccc34)CC1)CCCC2 [Risperidone]
onset of psychotic symptoms and abnormal brain development [5]: prevented the onset psychotic symptoms and abnormal brain development

COc1cccc(OC)c1-c1cc(C(=O)NC2(C(=O)O)C3CC4CC(C3)CC2C4)nn1-c1ccc(C(=O)N(C)CCCN(C)C)cc1C(C)C (centres unmarked) [NTA]
PPI levels (naive C57B1/6 mice [6]): does not affect PPI levels
